Converted amounts (≈) assume the structure as drawn. The source made the active and inactive calls. No cut-off for these calls is given here.
Tests used:
Pseudomonas aeruginosa [1] = experiment: Antibiofilm activity against Pseudomonas aeruginosa PA14 assessed as inhibition of biofilm formation at 50 uM measured after 48 hrs relative to control; format: functional
[2] = Inhibition of quorum sensing system lasB in Pseudomonas aeruginosa transfected with lasB-gfp assessed as reduction of GFP production
[3] = Inhibition of quorum sensing system in Chromobacterium violaceum ATCC 31532 assessed as reduction in violacein production at <100 uM; conditions: dose microM <100
Pseudomonas aeruginosa [4] = experiment: Inhibition of quorum sensing system lasB in Pseudomonas aeruginosa transfected with lasB-gfp assessed as reduction of GFP production at 10 to 15 uM; conditions: dose 10-15 µM
[5] = tested on: Staphylococcus epidermidis; experiment: Inhibition of quorum sensing system in Staphylococcus epidermidis
Pseudomonas aeruginosa [6] = experiment: Potency index, ratio of 4NPO IC50 to test compound IC50 for inhibition of quorum sensing system lasB in Pseudomonas aeruginosa transfected with lasB-gfp
[7] = Inhibition of quorum sensing system in Chromobacterium violaceum ATCC 31532 assessed as reduction in violacein production at 100 uM
Pseudomonas aeruginosa [8] = experiment: Antibacterial activity against Pseudomonas aeruginosa assessed as inhibition of cell growth; format: functional
Pseudomonas aeruginosa [9] = experiment: Antibiofilm activity against Pseudomonas aeruginosa PA14 assessed as inhibition of biofilm formation at 15 to 50 uM measured after 48 hrs; format: functional, organism-based; conditions: dose 15-50 µM
Pseudomonas aeruginosa [10] = experiment: Antibiofilm activity against Pseudomonas aeruginosa PA14 assessed as inhibition of biofilm formation at 15 to 50 uM measured after 48 hrs relative to control; format: functional; conditions: dose 15-50 µM
Pseudomonas aeruginosa [11] = experiment: Inhibition of quorum sensing system lasB in Pseudomonas aeruginosa transfected with lasB-gfp assessed as reduction of GFP production at 5 uM
Pseudomonas aeruginosa [12] = experiment: Inhibition of quorum sensing system lasB in Pseudomonas aeruginosa transfected with lasB-gfp assessed as reduction of GFP production at 10 uM

Row | Structure (SMILES) | inhibition at 50 µM (Pseudomonas aeruginosa [1]) | IC50 ([2]; read-out: IC50) | inhibition [3] | inhibition (Pseudomonas aeruginosa [4]) | inhibition [5] | Ratio IC50 (Pseudomonas aeruginosa [6]) | inhibition [7] | MIC (Pseudomonas aeruginosa [8]) | IC50 [2] | inhibition (Pseudomonas aeruginosa [9]) | inhibition (INH) (Pseudomonas aeruginosa [10]) | inhibition (Pseudomonas aeruginosa [11]) | inhibition (Pseudomonas aeruginosa [12])
1 | Cc1ccc(N2CC(=O)N3[C@@H](CC(C)C)C(=O)N(Cc4ccco4)C[C@@H]3N2C(=O)NCc2ccccc2)cc1 | 80% | 12 µM | inactive | Active | inactive | 2 | 52% | > 150 µM | – | – | – | – | –
2 | CCCCN1C[C@H]2N(C(=O)CN(c3ccc(C)cc3)N2C(=O)NCc2ccccc2)[C@@H](Cc2ccc(Cl)cc2)C1=O | – | – | inactive | – | inactive | – | 12% | 100 µM (≈ 57.4 µg/mL) | Not Active | – | – | – | –
3 | CCCCN1C[C@H]2N(C(=O)CN(c3ccc(C)cc3)N2C(=O)NCc2ccccc2)[C@@H](C(C)C)C1=O | – | – | inactive | – | inactive | – | 21% | > 150 µM | Not Active | – | – | – | –
4 | O=[N+]([O-])c1cc[n+]([O-])cc1 | – | 27 µM | – | – | – | – | 66% | – | – | Active | – | – | –
5 | C=CCNC(=O)N1[C@H]2CN(Cc3ccccc3)C(=O)[C@H](Cc3ccccc3)N2C(=O)CN1c1ccc(C)cc1 | – | 4 µM | inactive | – | inactive | 2 | 62% | > 100 µM | – | – | 80% | Active | –
6 | C=CCNC(=O)N1[C@H]2CN(Cc3ccccc3)C(=O)[C@H](C(C)CC)N2C(=O)CN1c1ccc(C)cc1 (some centres not stated) | – | 7 µM | inactive | – | inactive | 2 | 49% | > 100 µM | – | – | 20% | – | Active

Source: ChEMBL document CHEMBL4811292, “Discovery of novel β-turn mimetic-based peptides as novel quorum sensing inhibitors of gram-negative bacteria” (Bioorg Med Chem Lett, 2021)
